Experimental data taken from patent US8691870B2, “Use of isothiocyanates for treating cancer” (Mackay Memorial Hospital, priority 2011, dated 2014).
Like-named read-outs stand apart in the source and are kept apart here.

Key:
Type in all cases: cell-based, human
[1] = system: imatinib resistant CML K562R cells; assay: Cell cycle analysis (flow cytometry) of imatinib resistant CML K562R cells; details: 24 hours
Experimental: The CML cell line, K562R, was cultured in the presence of a continuous low dose of imatinib mesylate, which is also termed STI-571, to generate their resistance to imatinib. In operation, K562R cells were maintained in the DMEM supplemented with 10% fetal calf serum (FCS), 100 IU/ml penicillin, 100 μg/ml streptomycin, 2 mM glutamine and 0.2 μM imatinib in 5% CO2 at 37° C.
(§1) The fixed cells were then warmed up to room temperature and treated with RNAase A for about 30 min. Precipitated cells were collected by centrifugation and re-suspended in a buffer solution containing propidium iodine (20 μg/ml) before being subject to flow cytometry analysis, where cell numbers at respective cell cycles were determined.
(§2) The imatinib resistant human chronic myelogenous leukemia (CML) cell line K562R was induced by procedures described above in the “Materials and Methods” Section. Anti-proliferative activity of I7557 and I7557 were respectively assessed by cell viability and cell cycle analysis, as well as by immunoblot and Liu's Staining.

[2] = system: PANC-1 cells; assay: Radiation treatment and clonogenic assay, PANC-1 cells
From the text: (§3) The drugs were then washed out, and cells were subject to radiation treatment. Specifically, 6 MeV electron beam energy was delivered by a linear accelerator (Clinac 1800, Varian Associates, Inc., Palo Alto, Calif., USA) with a rate of 2.4 Gy/min at various dose including 0, 0.5, 1, 2 and 4 Gy in a single fraction. Full electron equilibrium was ensured for each fraction by a parallel plate PR-60C ionization chamber ([…], Inc., Ramsey, N.Y., USA).
(§4) After radiation treatment, cells were returned to the culture for another 10 to 14 days; then were stained with 3% crystal violet and the numbers of colony (≧50 cells) were counted.
(§5) The colony is defined to consist of at least 50 cells.

[3] = system: β-tubulin; assay: Immunoblot analysis of β-tubulin in K562R cells; details: FIG. 4
Experimental: (§6) Cultured cells were lysed by use of well known lysing buffer, and total amount of proteins were determined by Bradford method. […] The separated proteins were then transferred to nitrocellulose membrane and non-specific binding was removed by TBST buffer (0.8% NaCl, 0.02% KCl, 25 mM Tris-HCl/pH 8.0 and 0.1% Tween-20) containing 4% skim milk. Antibodies including p-Plk-1, p-Chk-1, p-Chk-2, p-Cdc2, GAPDH, α-tubulin, β-tubulin, and p-histone H3 (purchased from Transduction Laboratories, Lexington, Ky., USA), were respectively dissolved in TBST buffer containing 2% skim milk and incubated with the separated protein bands at 4° C. for at least over night; followed by incubation with horseradish conjugated secondary antibodies at room temperature for about 30 min, and then detected by ECL chemiluminesance detection kit (Amersham Pharmacia Biotech, US).

[4] = system: imatinib resistant CML K562R cells; assay: Liu's staining, morphology of imatinib resistant CML K562R cells; details: 20 μM, indicates apoptosis and mitotic arrest
From the text: as §2

[5] = system: PANC-1 cells; assay: Cell cycle analysis of PANC-1 cells; details: 24 hours
Experimental: as §1

[6] = system: BxPC-3 cells; assay: Radiation treatment and clonogenic assay, BxPC-3 cells
From the text: as §3, §4, §5

[7] = system: BE-3 cells; assay: MTT cell viability assay on BE-3 cells; design: key to Cell viability (MTT reading), I / Cell viability (MTT reading), II / Cell viability (MTT reading), Average / Cell viability (MTT reading), III: absorbance at 570 nm; details: for Cell viability (MTT reading), I: replicate I; for Cell viability (MTT reading), II: replicate II
Experimental: (§7) Cell lines used in the present disclosure include human chronic myelogenous leukemia (CML) cell line K562, Imatinib-resistant K562 cell line K562R, human pancreatic carcinoma, epithelial-like cell line PANC-1, human pancreatic cancer cell line BxPc-3, human large cell lung cancer cell line SEG-1, human esophageal squamous cell carcinoma line 81T/VGH and human esophageal adenocarcinoma line BE-3. Each cell lines were cultured and maintained in Dulbecco's modified Eagle media (DMEM) supplemented with 10% fetal calf serum, 100 IU/ml penicillin, 100 μg/ml streptomycin, and 2 mM glutamine in 5% CO2 at 37° C.
(§8) The absorbance of the solution at 570 nm was measured by spectrophotometer.

[8] = system: p-Chk-1; assay: Immunoblot analysis of p-Chk-1 in K562R cells; details: FIG. 7
Experimental: as §6

[9] = system: p-Chk-2; assay: Immunoblot analysis of p-Chk-2 in K562R cells; details: FIG. 8
Experimental: as §6

[10] = system: cyclin B1; assay: Immunoblot analysis of cyclin B1 in K562R cells; details: FIG. 5
Experimental: as §6

[11] = system: phosphorylated histone H3; assay: Immunoblot analysis of phosphorylated histone H3 in K562R cells; details: FIG. 10
Experimental: as §6

[12] = system: p-Cdc2 kinase; assay: Immunoblot analysis of p-cdc2 kinase in K562R cells; details: FIG. 9
Experimental: as §6

[13] = system: p-Plk-1; assay: Immunoblot analysis of phosphorylated Plk-1 in K562R cells; details: FIG. 6
Experimental: as §6

[14] = system: 81T/VGH cells; assay: MTT cell viability assay on 81T/VGH cells; design: key to Cell viability (MTT reading), I / Cell viability (MTT reading), II / Cell viability (MTT reading), III / Cell viability (MTT reading), Average: absorbance at 570 nm; details: 48 hours; for Cell viability (MTT reading), I: replicate I; for Cell viability (MTT reading), II: replicate II; for Cell viability (MTT reading), III: replicate III
Experimental: as §7, §8

Compound: CS(=O)(=O)CCCCCCN=C=S [I7557, 6-methylsulfonylhexyl isothiocyanate]
- Cell Cycle (%) G0/G1 ([1]; 5 μM): 30.79 ± 2.28%
- Cell Cycle (%) G2/M ([1]; 5 μM): 22.84 ± 0.60%
- Cell Cycle (%) S ([1]; 5 μM): 46.38 ± 1.73%
- Cell Cycle (%) Sub-G1% ([1]; 5 μM): 0.52 ± 0.07%
- Cell Cycle (%) G0/G1 ([1]; 10 μM): 30.52 ± 0.96%
- Cell Cycle (%) G2/M ([1]; 10 μM): 18.40 ± 1.16%
- Cell Cycle (%) S ([1]; 10 μM): 51.08 ± 0.36%
- Cell Cycle (%) Sub-G1% ([1]; 10 μM): 1.18 ± 0.08%
- Cell Cycle (%) G0/G1 ([1]; 20 μM): 11.54 ± 6.51%
- Cell Cycle (%) G2/M ([1]; 20 μM): 65.10 ± 8.16%
- Cell Cycle (%) S ([1]; 20 μM): 23.36 ± 2.45%
- Cell Cycle (%) Sub-G1% ([1]; 20 μM): 5.33 ± 1.46%
- Number of colonies (clonogenic assay) ([2]; PANC-1, 5 μM pre-treatment 24 hours, radiation 0 Gy): 60
- Number of colonies (clonogenic assay) ([2]; PANC-1, 5 μM pre-treatment 24 hours, radiation 0.5 Gy): 63
- Number of colonies (clonogenic assay) ([2]; PANC-1, 5 μM pre-treatment 24 hours, radiation 1 Gy): 59
- Number of colonies (clonogenic assay) ([2]; PANC-1, 5 μM pre-treatment 24 hours, radiation 2 Gy): 48
- Number of colonies (clonogenic assay) ([2]; PANC-1, 5 μM pre-treatment 24 hours, radiation 4 Gy): 20
- susceptibility of cells to radiation treatment ([2]; PANC-1, 10 μM): enhancing the susceptibility
- Number of colonies (clonogenic assay) ([2]; PANC-1, 10 μM pre-treatment 24 hours, radiation 0 Gy): 41
- Number of colonies (clonogenic assay) ([2]; PANC-1, 10 μM pre-treatment 24 hours, radiation 0.5 Gy): 26
- Number of colonies (clonogenic assay) ([2]; PANC-1, 10 μM pre-treatment 24 hours, radiation 1 Gy): 35
- Number of colonies (clonogenic assay) ([2]; PANC-1, 10 μM pre-treatment 24 hours, radiation 2 Gy): 19
- Number of colonies (clonogenic assay) ([2]; PANC-1, 10 μM pre-treatment 24 hours, radiation 4 Gy): 6
- β-tubulin levels vs control cells [3]: lowered
- Cell morphology after Liu's staining [4]: round up with an appearance of a balloon
- Cell Cycle (%) G0/G1 ([5]; 10 μM): 45.43 ± 1.27%
- Cell Cycle (%) G2/M ([5]; 10 μM): 28.38 ± 2.41%
- Cell Cycle (%) S ([5]; 10 μM): 26.19 ± 3.28%
- Cell Cycle (%) Sub-G1% ([5]; 10 μM): 0.79 ± 0.05%
- Cell Cycle (%) G0/G1 ([5]; 20 μM): 24.71 ± 2.98%
- Cell Cycle (%) G2/M ([5]; 20 μM): 55.84 ± 0.63%
- Cell Cycle (%) S ([5]; 20 μM): 19.45 ± 3.32%
- Cell Cycle (%) Sub-G1% ([5]; 20 μM): 2.05 ± 0.44%
- Number of colonies (clonogenic assay) ([6]; BxPC-3, 5 μM pre-treatment 24 hours, radiation 0 Gy): 33
- Number of colonies (clonogenic assay) ([6]; BxPC-3, 5 μM pre-treatment 24 hours, radiation 0.5 Gy): 37
- Number of colonies (clonogenic assay) ([6]; BxPC-3, 5 μM pre-treatment 24 hours, radiation 1 Gy): 39
- Number of colonies (clonogenic assay) ([6]; BxPC-3, 5 μM pre-treatment 24 hours, radiation 2 Gy): 29
- Number of colonies (clonogenic assay) ([6]; BxPC-3, 5 μM pre-treatment 24 hours, radiation 4 Gy): 9
- Number of colonies (clonogenic assay) ([6]; BxPC-3, 10 μM pre-treatment 24 hours, radiation 0 Gy): 16
- Number of colonies (clonogenic assay) ([6]; BxPC-3, 10 μM pre-treatment 24 hours, radiation 0.5 Gy): 15
- Number of colonies (clonogenic assay) ([6]; BxPC-3, 10 μM pre-treatment 24 hours, radiation 1 Gy): 8
- Number of colonies (clonogenic assay) ([6]; BxPC-3, 10 μM pre-treatment 24 hours, radiation 2 Gy): 7
- Number of colonies (clonogenic assay) ([6]; BxPC-3, 10 μM pre-treatment 24 hours, radiation 4 Gy): 1
- susceptibility of cells to radiation treatment ([6]; BxPc-3, 10 μM): enhancing the susceptibility
- Cell viability (MTT reading), Average ([7]; BE-3, 10 μM, 48 hours): 1.635 ± 0.078
- Cell viability (MTT reading), I ([7]; BE-3, 10 μM, 48 hours): 1.581
- Cell viability (MTT reading), II ([7]; BE-3, 10 μM, 48 hours): 1.534
- Cell viability (MTT reading), Average ([7]; BE-3, 20 μM, 48 hours): 1.151 ± 0.028
- Cell viability (MTT reading), I ([7]; BE-3, 20 μM, 48 hours): 1.105
- Cell viability (MTT reading), II ([7]; BE-3, 20 μM, 48 hours): 1.147
- Cell viability (MTT reading), III ([7]; BE-3, 20 μM, 48 hours, replicate III): 1.201
- inhibition at 10 µM ([7]; Homo sapiens, BE-3, 10 μM, 48 hours): 26.8 ± 1.05%
- inhibition at 20 µM ([7]; Homo sapiens, BE-3, 20 μM, 48 hours, read-out: % of inhibition): 48.4 ± 1%
- inhibition at 20 µM ([7]; Homo sapiens, BE-3, 20 μM, read-out: cancerous cells' growth inhibition): ~50%
- level of p-Chk-1 vs control [8]: decreased
- level of p-Chk-2 vs control [9]: decreased
- level of cyclin B1 vs control [10]: increased
- levels of phosphorylated histone H3 vs control cells [11]: significantly higher
- level of p-cdc2 kinase vs control [12]: decreased
- level of phosphorylated Plk-1 vs control [13]: increased
- Cell viability (MTT reading), Average ([14]; 10 μM): 1.514 ± 0.104
- Cell viability (MTT reading), I ([14]; 10 μM): 1.324
- Cell viability (MTT reading), II ([14]; 10 μM): 1.682
- Cell viability (MTT reading), III ([14]; 10 μM): 1.537
- Cell viability (MTT reading), Average ([14]; 20 μM): 0.965 ± 0.086
- Cell viability (MTT reading), I ([14]; 20 μM): 0.804
- Cell viability (MTT reading), II ([14]; 20 μM): 0.991
- Cell viability (MTT reading), III ([14]; 20 μM): 1.100
- inhibition at 10 µM ([14]; Homo sapiens, 10 μM): 30.6 ± 5.18%
- inhibition at 20 µM ([14]; Homo sapiens, 20 μM): 55.4 ± 6.11%
